In US20240174662A1, “SMALL MOLECULE INHIBITORS OF SALT INDUCIBLE KINASES” (Janssen Biotech, Inc., priority 2021, published 2024):
“And” between values parts separate entries of the source, which are not always exact repeats. Identical values can stand only once.

molecular target: SIK2 (Homo sapiens (Human), UniProt Q9H0K1); experiment: SIK2 Enzymatic Assay Version 2 (High ATP); format: biochemical; conditions: 3 mM ATP and 200 μM HDAC5tide final, ADP-Glo Max luminescence
How it was run: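 Luminescent ADP-Glo Max read-out: depletion reagent 2 h, then detection reagent 1 h. Before the reaction, compounds were incubated 30 min with enzyme added at 6 nM (twice final concentration), with all steps at room temperature.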

Chain of SIK2 (Q9H0K1 whole entry, species assumed): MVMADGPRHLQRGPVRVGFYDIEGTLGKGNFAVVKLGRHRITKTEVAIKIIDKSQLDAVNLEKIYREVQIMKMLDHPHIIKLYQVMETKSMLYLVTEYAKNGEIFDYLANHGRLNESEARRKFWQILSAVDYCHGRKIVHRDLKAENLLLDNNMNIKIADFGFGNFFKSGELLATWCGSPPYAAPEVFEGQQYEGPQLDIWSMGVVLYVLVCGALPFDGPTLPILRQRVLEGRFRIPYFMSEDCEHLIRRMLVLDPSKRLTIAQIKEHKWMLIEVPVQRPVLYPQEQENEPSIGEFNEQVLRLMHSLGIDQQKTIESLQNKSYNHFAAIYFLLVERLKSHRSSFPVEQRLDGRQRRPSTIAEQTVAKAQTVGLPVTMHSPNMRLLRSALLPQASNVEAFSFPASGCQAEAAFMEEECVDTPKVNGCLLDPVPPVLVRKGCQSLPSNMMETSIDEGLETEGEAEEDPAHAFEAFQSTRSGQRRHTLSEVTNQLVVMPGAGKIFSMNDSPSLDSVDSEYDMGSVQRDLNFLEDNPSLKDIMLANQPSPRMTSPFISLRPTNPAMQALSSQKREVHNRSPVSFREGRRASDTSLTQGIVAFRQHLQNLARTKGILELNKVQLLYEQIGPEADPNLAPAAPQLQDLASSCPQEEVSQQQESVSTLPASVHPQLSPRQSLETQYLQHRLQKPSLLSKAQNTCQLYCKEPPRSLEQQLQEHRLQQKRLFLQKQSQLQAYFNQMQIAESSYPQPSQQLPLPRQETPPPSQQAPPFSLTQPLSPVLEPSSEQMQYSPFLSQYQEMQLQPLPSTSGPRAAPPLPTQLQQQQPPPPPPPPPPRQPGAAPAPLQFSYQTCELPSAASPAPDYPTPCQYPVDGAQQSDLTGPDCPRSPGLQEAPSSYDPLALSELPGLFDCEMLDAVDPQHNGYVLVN

| SMILES | IC50 |
| --- | --- |
| [2H]C([2H])([2H])N1CC[C@H](Oc2noc(C)c2-c2ccn3nc(NC(=O)C4CC4)cc3c2)C1 [Example 384, N-[5-[5-methyl-3-[(3S)-1-(trideuteriomethyl)pyrrolidin-3-yl]oxy-isoxazol-4-yl]pyrazolo[1,5-a]pyridin-2-yl]cyclopropanecarboxamide] | 161 nM |
| Cc1onc(O[C@H]2C[C@H](N)C2)c1-c1ccn2nc(NC(=O)C3CC3)cc2c1 [Example 386, N-[5-[3-(3-aminocyclobutoxy)-5-methyl-isoxazol-4-yl]pyrazolo[1,5-a]pyridin-2-yl]cyclopropanecarboxamide] | 111 nM |
| Cc1onc(OC[C@H]2CCCN2C)c1-c1ccn2nc(NC(=O)C3CC3)cc2c1 [Example 388, N-[5-[5-methyl-3-[[(2R)-1-methylpyrrolidin-2-yl]methoxy]isoxazol-4-yl]pyrazolo[1,5-a]pyridin-2-yl]cyclopropanecarboxamide] | 146 nM |
| Cc1onc(O[C@@H]2CN[C@H](C(F)F)C2)c1-c1ccn2nc(NC(=O)C3CC3)cc2c1 [Example 389, N-[5-[3-[(3S,5S)-5-(difluoromethyl)pyrrolidin-3-yl]oxy-5-methyl-isoxazol-4-yl]pyrazolo[1,5-a]pyridin-2-yl]cyclopropanecarboxamide] | 125 nM |
| Cc1cnc(Nc2cc3cc(-c4c(OC[C@H]5CCN5)cnn4C)ccn3n2)cn1 [Example 393, 5-[4-[[(2R)-azetidin-2-yl]methoxy]-2-methyl-pyrazol-3-yl]-N-(5-methylpyrazin-2-yl)pyrazolo[1,5-a]pyridin-2-amine] | 98.4 nM |
| Cn1ncc(OC[C@H]2CCN2)c1-c1ccn2nc(Nc3ccc(C4CC4)nn3)cc2c1 [Example 394, 5-[4-[[(2R)-azetidin-2-yl]methoxy]-2-methyl-pyrazol-3-yl]-N-(6-cyclopropylpyridazin-3-yl)pyrazolo[1,5-a]pyridin-2-amine] | 103 nM |
| CN1CC[C@@H]1COc1cnn(C)c1-c1ccn2nc(Nc3ncc(F)cn3)cc2c1 [Example 395, N-(5-fluoropyrimidin-2-yl)-5-[2-methyl-4-[[(2R)-1-methylazetidin-2-yl]methoxy]pyrazol-3-yl]pyrazolo[1,5-a]pyridin-2-amine] | 97.5 nM |
| CN1CC[C@@H](COc2cnn(C)c2-c2ccn3nc(NC(=O)C4CC4)cc3c2)C1 [Example 396, N-[5-[2-methyl-4-[[(3R)-1-methylpyrrolidin-3-yl]methoxy]pyrazol-3-yl]pyrazolo[1,5-a]pyridin-2-yl]cyclopropanecarboxamide] | 60.5 nM and 93.2 nM |
| Cn1ncc(OC2CNC2)c1-c1ccn2nc(NC(=O)C3CC3)cc2c1 [Example 397, N-[5-[4-(azetidin-3-yloxy)-2-methyl-pyrazol-3-yl]pyrazolo[1,5-a]pyridin-2-yl]cyclopropanecarboxamide] | 128 nM |
| CCn1ncc(OC[C@@H]2CCN(C)C2)c1-c1ccn2nc(NC(=O)C3CC3)cc2c1 [Example 398, N-[5-[2-ethyl-4-[[(3R)-1-methylpyrrolidin-3-yl]methoxy]pyrazol-3-yl]pyrazolo[1,5-a]pyridin-2-yl]cyclopropanecarboxamide] | 97.8 nM |
| CN1CC(Oc2cnn(C)c2-c2ccn3nc(NC(=O)C4CC4)cc3c2)C1 [Example 399, N-[5-[2-methyl-4-(1-methylazetidin-3-yl)oxy-pyrazol-3-yl]pyrazolo[1,5-a]pyridin-2-yl]cyclopropanecarboxamide] | 174 nM |
| Cn1ncc(OC[C@H]2C[C@@H](N)C2)c1-c1ccn2nc(NC(=O)C3CC3)cc2c1 [Example 400, N-[5-[4-[(3-aminocyclobutyl)methoxy]-2-methyl-pyrazol-3-yl]pyrazolo[1,5-a]pyridin-2-yl]cyclopropanecarboxamide] | 108 nM |
| Cn1ncc(OC[C@H](O)c2ccccc2)c1-c1ccn2nc(NC(=O)C3CC3)cc2c1 [Example 403, N-[5-[4-[(2R)-2-hydroxy-2-phenyl-ethoxy]-2-methyl-pyrazol-3-yl]pyrazolo[1,5-a]pyridin-2-yl]cyclopropanecarboxamide] | 99.7 nM |
| Cn1ncc(O[C@H]2CC[C@@H](O)CC2)c1-c1ccn2nc(NC(=O)C3CC3)cc2c1 [Example 404, N-[5-[4-(4-hydroxycyclohexoxy)-2-methyl-pyrazol-3-yl]pyrazolo[1,5-a]pyridin-2-yl]cyclopropanecarboxamide] | 120 nM |
| CN1CC(F)(COc2cnn(C)c2-c2ccn3nc(NC(=O)C4CC4)cc3c2)C1 [Example 405, N-[5-[4-[(3-fluoro-1-methyl-azetidin-3-yl)methoxy]-2-methyl-pyrazol-3-yl]pyrazolo[1,5-a]pyridin-2-yl]cyclopropanecarboxamide] | 98.3 nM |
| COC1(COc2cnn(C)c2-c2ccn3nc(NC(=O)C4CC4)cc3c2)CN(C)C1 [Example 406, N-[5-[4-[(3-methoxy-1-methyl-azetidin-3-yl)methoxy]-2-methyl-pyrazol-3-yl]pyrazolo[1,5-a]pyridin-2-yl]cyclopropanecarboxamide] | 174 nM |
| Cn1ncc(OC[C@@H]2CCCN2)c1-c1ccn2nc(NC(=O)C3CC3)cc2c1 [Example 412, N-[5-[2-methyl-4-[[(2S)-pyrrolidin-2-yl]methoxy]pyrazol-3-yl]pyrazolo[1,5-a]pyridin-2-yl]cyclopropanecarboxamide] | 122 nM |
| CN1C[C@H](F)[C@H](Oc2cnn(C)c2-c2ccn3nc(NC(=O)C4CC4)cc3c2)C1 [Example 415, N-[5-[4-[(3R,4S)-4-fluoro-1-methyl-pyrrolidin-3-yl]oxy-2-methyl-pyrazol-3-yl]pyrazolo[1,5-a]pyridin-2-yl]cyclopropanecarboxamide] | 124 nM |

The remaining molecules from weak to strong by IC50, led by results:

| IC50 | SMILES |
| --- | --- |
| 96.1 nM | Cc1onc(O[C@H]2CCN(C)C2)c1-c1ccn2nc(NC(=O)C3CC3)cc2c1 [Example 382, N-[5-[5-methyl-3-[(3S)-1-methylpyrrolidin-3-yl]oxy-isoxazol-4-yl]pyrazolo[1,5-a]pyridin-2-yl]cyclopropanecarboxamide] |
| 94.1 nM | COC[C@@H]1C[C@H](Oc2noc(C)c2-c2ccn3nc(Nc4cc(C)c(C)nn4)cc3c2)CN1C [Example 391, N-(5,6-dimethylpyridazin-3-yl)-5-[3-[(3S,5S)-5-(methoxymethyl)-1-methyl-pyrrolidin-3-yl]oxy-5-methyl-isoxazol-4-yl]pyrazolo[1,5-a]pyridin-2-amine] |
| 92.4 nM | Cn1ncc(OCC2(N)COC2)c1-c1ccn2nc(NC(=O)C3CC3)cc2c1 [Example 402, N-[5-[4-[(3-aminooxetan-3-yl)methoxy]-2-methyl-pyrazol-3-yl]pyrazolo[1,5-a]pyridin-2-yl]cyclopropanecarboxamide] |
| 89.9 nM | Cc1onc(OC[C@@H]2CCCNC2)c1-c1ccn2nc(NC(=O)C3CC3)cc2c1 [Example 383, N-[5-[5-methyl-3-[[(3R)-3-piperidyl]methoxy]isoxazol-4-yl]pyrazolo[1,5-a]pyridin-2-yl]cyclopropanecarboxamide] |
| 86 nM | Cn1ncc(OC2CCNCC2)c1-c1ccn2nc(NC(=O)C3CC3)cc2c1 [Example 407, N-[5-[2-methyl-4-(4-piperidyloxy)pyrazol-3-yl]pyrazolo[1,5-a]pyridin-2-yl]cyclopropanecarboxamide] |
| 85.8 nM | Cc1onc(OC[C@H]2C[C@H](N)C2)c1-c1ccn2nc(NC(=O)C3CC3)cc2c1 [Example 387, N-[5-[3-[(3-aminocyclobutyl)methoxy]-5-methyl-isoxazol-4-yl]pyrazolo[1,5-a]pyridin-2-yl]cyclopropanecarboxamide] |
| 79.5 nM | CCC1(COc2cnn(C)c2-c2ccn3nc(NC(=O)C4CC4)cc3c2)CN(C)C1 [Example 408, N-[5-[4-[(3-ethyl-1-methyl-azetidin-3-yl)methoxy]-2-methyl-pyrazol-3-yl]pyrazolo[1,5-a]pyridin-2-yl]cyclopropanecarboxamide] |
| 73 nM | Cc1ccc(Nc2cc3cc(-c4c(OC[C@H]5CCN5)cnn4C)ccn3n2)nn1 [Example 392, 5-[4-[[(2R)-azetidin-2-yl]methoxy]-2-methyl-pyrazol-3-yl]-N-(6-methylpyridazin-3-yl)pyrazolo[1,5-a]pyridin-2-amine] |
| 72.5 nM | CN1CC(COc2cnn(C)c2-c2ccn3nc(NC(=O)C4CC4)cc3c2)(c2ccccc2)C1 [Example 410, N-[5-[2-methyl-4-[(1-methyl-3-phenyl-azetidin-3-yl)methoxy]pyrazol-3-yl]pyrazolo[1,5-a]pyridin-2-yl]cyclopropanecarboxamide] |
| 70.8 nM | COC[C@@H]1C[C@H](Oc2noc(C)c2-c2ccn3nc(Nc4cc(C)c(C)nn4)cc3c2)CN1 [Example 390, N-(5,6-dimethylpyridazin-3-yl)-5-[3-[(3S,5S)-5-(methoxymethyl)pyrrolidin-3-yl]oxy-5-methyl-isoxazol-4-yl]pyrazolo[1,5-a]pyridin-2-amine] |
| 51.9 nM | Cn1ncc(CO[C@H]2CCNC2)c1-c1ccn2nc(NC(=O)C3CC3)cc2c1 [Example 363, N-[5-[2-methyl-4-[[(3S)-pyrrolidin-3-yl]oxymethyl]pyrazol-3-yl]pyrazolo[1,5-a]pyridin-2-yl]cyclopropanecarboxamide] |
| 7.2 nM | Cc1cncc(Nc2cc3cc(-c4c(CO[C@H]5CN(C)C[C@@H]5C)cnn4C)ccn3n2)n1 [Example 373, (rac-trans)-5-[4-[(1,4-dimethylpyrrolidin-3-yl)oxymethyl]-2-methyl-pyrazol-3-yl]-N-(6-methylpyrazin-2-yl)pyrazolo[1,5-a]pyridin-2-amine] |
| 3.6 nM | CN1CC[C@@H]1COc1cnn(C)c1-c1ccn2nc(Nc3cnc(C(C)(C)C)cn3)cc2c1 [Example 381, N-(5-tert-butylpyrazin-2-yl)-5-[2-methyl-4-[[(2R)-1-methylazetidin-2-yl]methoxy]pyrazol-3-yl]pyrazolo[1,5-a]pyridin-2-amine] |
| 2.9 nM | Cc1cc(Nc2cc3cc(-c4c(CO[C@H]5CN(C)C[C@H]5C)cnn4C)ccn3n2)nc(C)n1 [Example 367, (rac-cis)-N-(2,6-dimethylpyrimidin-4-yl)-5-[4-[(1,4-dimethylpyrrolidin-3-yl)oxymethyl]-2-methyl-pyrazol-3-yl]pyrazolo[1,5-a]pyridin-2-amine] |
